Laboratory results: patent US20260285855A1, “HETEROARYL DERIVATIVES AS DDRS INHIBITORS” (CHIESI FARMACEUTICI S.P.A., priority 2023, published 2026)

Tests used:
DDR1 = biological target: T1, DDR1 (Homo sapiens, UniProt Q08345); assay: LanthaScreen Europium Kinase Binding assay, DDR1; conditions: 5 nM DDR1, 20 nM Kinase Tracer 178, 1 h at rt; Ki from IC50 by Cheng-Prusoff; read-out: Ki DDR1
T1 construct: purchased Carna Biosciences
Method: (§1) DDR1 and DDR2 binding assays were performed using Life Technologies LanthaScreen™ Europium Kinase Binding assay. […] IC50 values were determined in GraphPad Prism 7.0 software, using 4 parameter model: log (inhibitor) vs. response. IC50 values were converted in Ki using the Cheng-Prusoff equation (Ki-IC50/(1+ [Tracer]/Kd).

DDR2 = biological target: T2, DDR2 (Homo sapiens, UniProt Q16832); assay: LanthaScreen Europium Kinase Binding assay, DDR2; conditions: 5 nM DDR2, 10 nM Kinase Tracer 178, 1 h at rt; Ki from IC50 by Cheng-Prusoff; read-out: Ki DDR2
T2 construct: purchased Life Technologies
T2 sequence (Q16832 22-855): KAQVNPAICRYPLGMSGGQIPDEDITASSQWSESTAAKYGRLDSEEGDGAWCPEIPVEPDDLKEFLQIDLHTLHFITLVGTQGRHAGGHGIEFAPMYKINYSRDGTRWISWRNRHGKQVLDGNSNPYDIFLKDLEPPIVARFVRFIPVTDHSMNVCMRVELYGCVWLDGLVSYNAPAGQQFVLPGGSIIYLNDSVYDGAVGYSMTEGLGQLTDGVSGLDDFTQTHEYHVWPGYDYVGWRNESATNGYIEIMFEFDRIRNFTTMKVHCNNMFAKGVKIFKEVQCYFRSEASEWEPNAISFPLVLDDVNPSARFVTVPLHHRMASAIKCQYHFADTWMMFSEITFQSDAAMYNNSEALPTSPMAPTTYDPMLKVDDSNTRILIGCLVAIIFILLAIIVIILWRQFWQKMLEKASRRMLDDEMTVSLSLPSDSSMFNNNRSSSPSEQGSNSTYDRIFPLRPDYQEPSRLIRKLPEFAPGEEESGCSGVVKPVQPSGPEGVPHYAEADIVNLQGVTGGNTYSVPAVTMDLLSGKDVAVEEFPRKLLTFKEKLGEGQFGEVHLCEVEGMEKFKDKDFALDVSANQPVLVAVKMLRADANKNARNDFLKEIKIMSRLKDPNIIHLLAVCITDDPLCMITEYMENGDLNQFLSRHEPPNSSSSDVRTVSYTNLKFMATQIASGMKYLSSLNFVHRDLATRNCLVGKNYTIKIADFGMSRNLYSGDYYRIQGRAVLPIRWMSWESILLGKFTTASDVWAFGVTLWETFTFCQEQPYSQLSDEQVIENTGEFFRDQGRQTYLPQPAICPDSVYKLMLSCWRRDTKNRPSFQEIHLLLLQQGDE
Method: as §1

T1 sequence (Q08345 19-913): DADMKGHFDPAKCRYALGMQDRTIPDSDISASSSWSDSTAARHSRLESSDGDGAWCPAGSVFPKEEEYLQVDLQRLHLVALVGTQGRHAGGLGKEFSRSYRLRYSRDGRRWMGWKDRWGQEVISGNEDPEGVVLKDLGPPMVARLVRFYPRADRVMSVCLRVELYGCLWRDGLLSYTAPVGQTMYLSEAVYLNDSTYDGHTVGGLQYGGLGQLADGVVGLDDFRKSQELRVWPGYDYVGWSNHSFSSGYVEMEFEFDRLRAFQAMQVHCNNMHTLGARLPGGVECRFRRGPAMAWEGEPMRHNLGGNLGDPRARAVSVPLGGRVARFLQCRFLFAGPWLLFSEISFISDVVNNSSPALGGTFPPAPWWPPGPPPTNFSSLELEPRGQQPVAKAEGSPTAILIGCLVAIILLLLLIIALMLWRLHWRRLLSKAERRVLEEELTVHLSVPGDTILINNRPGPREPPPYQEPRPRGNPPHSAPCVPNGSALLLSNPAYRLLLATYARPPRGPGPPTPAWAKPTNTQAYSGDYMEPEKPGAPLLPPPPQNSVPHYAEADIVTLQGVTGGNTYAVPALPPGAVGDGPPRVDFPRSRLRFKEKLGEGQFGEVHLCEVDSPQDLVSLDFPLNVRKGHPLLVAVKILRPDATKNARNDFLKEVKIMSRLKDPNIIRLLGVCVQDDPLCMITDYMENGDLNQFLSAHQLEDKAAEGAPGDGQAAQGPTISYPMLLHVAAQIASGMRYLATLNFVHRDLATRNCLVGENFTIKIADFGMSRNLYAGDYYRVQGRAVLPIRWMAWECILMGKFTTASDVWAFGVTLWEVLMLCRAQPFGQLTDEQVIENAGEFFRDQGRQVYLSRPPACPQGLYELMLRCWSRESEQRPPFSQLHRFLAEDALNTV

Structure (SMILES)	Ki (DDR1) [nM]	Ki (DDR2) [nM]
Cc1ccc(C(F)(F)F)cc1NC(=O)N(C)C1CC2(C1)CN(C(=O)c1cnn3ccn(C)c13)C2 [Example 232, 1-methyl-1-(2-(1-methyl-1H-imidazo[1,2-b]pyrazole-7-carbonyl)-2-azaspiro[3.3]heptan-6-yl)-3-(2-methyl-5-(trifluoromethyl)phenyl)urea]	< 5	5 to 25
COc1ccc(-c2ccc3c(C(=O)N4CC5(CC(N(C)C(=O)Nc6cncc(C(F)(F)F)c6)C5)C4)cnn3c2)cc1OC [Example 233, 1-(2-(6-(3,4-dimethoxyphenyl)pyrazolo [1,5-a]pyridine-3-carbonyl)-2-azaspiro[3.3]heptan-6-yl)-1-methyl-3-(5-(trifluoromethyl)pyridin-3-yl)urea]	< 5	5 to 25
Cc1ncc(-c2ccc3c(C(=O)N4CC5(CC(N(C)C(=O)Nc6cncc(C(F)(F)F)c6)C5)C4)cnn3c2)s1 [Example 234, 1-methyl-1-(2-(6-(2-methylthiazol-5-yl)pyrazolo[1,5-a]pyridine-3-carbonyl)-2-azaspiro[3.3]heptan-6-yl)-3-(5-(trifluoromethyl)pyridin-3-yl)urea]	< 5	5 to 25
CN(C(=O)Nc1cc(C(C)(C)C(F)(F)F)on1)C1CC2(C1)CN(C(=O)c1cnn3ccsc13)C2 [Example 235, 1-methyl-1-(2-(pyrazolo[5,1-b]thiazole-7-carbonyl)-2-azaspiro[3.3]heptan-6-yl)-3-(5-(1,1,1-trifluoro-2-methylpropan-2-yl)isoxazol-3-yl)urea]	< 5	5 to 25
COc1cc(-c2ccc3c(C(=O)N4CC5(CC(N(C)C(=O)Nc6cncc(C(F)(F)F)c6)C5)C4)cnn3c2)ccn1 [Example 236, 1-(2-(6-(2-methoxypyridin-4-yl)pyrazolo[1,5-a]pyridine-3-carbonyl)-2-azaspiro[3.3]heptan-6-yl)-1-methyl-3-(5-(trifluoromethyl)pyridin-3-yl)urea]	< 5	5 to 25
Cc1cc(-c2ccc3c(C(=O)N4CC5(CC(N(C)C(=O)Nc6cncc(C(F)(F)F)c6)C5)C4)cnn3c2)on1 [Example 237, 1-methyl-1-(2-(6-(3-methylisoxazol-5-yl)pyrazolo[1,5-a]pyridine-3-carbonyl)-2-azaspiro[3.3]heptan-6-yl)-3-(5-(trifluoromethyl)pyridin-3-yl)urea]	< 5	5 to 25
CN(C(=O)Nc1cc(C(F)(F)F)ccn1)C1CC2(C1)CN(C(=O)c1cnn3ccccc13)C2 [Example 238, 1-methyl-1-(2-(pyrazolo[1,5-a]pyridine-3-carbonyl)-2-azaspiro[3.3]heptan-6-yl)-3-(4-(trifluoromethyl)pyridin-2-yl)urea]	< 5	5 to 25
CN(C(=O)Nc1cc(OC(F)(F)F)ccn1)C1CC2(C1)CN(C(=O)c1cnn3ccccc13)C2 [Example 239, 1-methyl-1-(2-(pyrazolo[1,5-a]pyridine-3-carbonyl)-2-azaspiro[3.3]heptan-6-yl)-3-(4-(trifluoromethoxy)pyridin-2-yl)urea]	< 5	5 to 25
CN(C(=O)Nc1cncc(C(F)(F)F)c1)C1CC2(C1)CN(C(=O)c1cnn3cc(N4CCCC4)ccc13)C2 [Example 240, 1-methyl-1-(2-(6-(pyrrolidin-1-yl)pyrazolo[1,5-a]pyridine-3-carbonyl)-2-azaspiro[3.3]heptan-6-yl)-3-(5-(trifluoromethyl)pyridin-3-yl)urea]	5 to 25	5 to 25
CN(C(=O)Nc1cc(C(F)(F)F)ccn1)C1CC2(C1)CN(C(=O)c1cnn3cc(-c4cnn(C)c4)ccc13)C2 [Example 241, 1-methyl-1-(2-(6-(1-methyl-1H-pyrazol-4-yl)pyrazolo[1,5-a]pyridine-3-carbonyl)-2-azaspiro[3.3]heptan-6-yl)-3-(4-(trifluoromethyl)pyridin-2-yl)urea]	< 5	5 to 25
CN(C(=O)Nc1cc(OC(F)(F)F)ccn1)C1CC2(C1)CN(C(=O)c1cnn3cc(-c4cnn(C)c4)ccc13)C2 [Example 242, 1-(2-(6-(1,2-dimethyl-1H-214-pyrazol-4-yl)pyrazolo[1,5-a]pyridine-3-carbonyl)-2-azaspiro[3.3]heptan-6-yl)-1-methyl-3-(4-(trifluoromethoxy)pyridin-2-yl)urea]	< 5	5 to 25
CN(C(=O)Nc1cncc(C(F)(F)F)c1)C1CC2(C1)CN(C(=O)c1cnn3ccc(N)cc13)C2 [Example 244, 1-(2-(5-aminopyrazolo[1,5-a]pyridine-3-carbonyl)-2-azaspiro[3.3]heptan-6-yl)-1-methyl-3-(5-(trifluoromethyl)pyridin-3-yl)urea]	< 5	5 to 25

Further lines, results first:

Ki (DDR1) [nM]	Ki (DDR2) [nM]	Structure (SMILES)
< 5	5 to 25	CN(C(=O)Nc1cncc(C(F)(F)F)c1)C1CC2(C1)CN(C(=O)c1cnn3cc(-c4cncnc4)ccc13)C2 [Example 245, 1-methyl-1-(2-(6-(pyrimidin-5-yl)pyrazolo[1,5-a]pyridine-3-carbonyl)-2-azaspiro[3.3]heptan-6-yl)-3-(5-(trifluoromethyl)pyridin-3-yl)urea]
5 to 25	25 to 100	Cc1ncc(-c2ccc3c(C(=O)N4CC5(CC(N(C)C(=O)Nc6cncc(C(F)(F)F)c6)C5)C4)cnn3c2)cn1 [Example 246, 1-methyl-1-(2-(6-(2-methylpyrimidin-5-yl)pyrazolo[1,5-a]pyridine-3-carbonyl)-2-azaspiro[3.3]heptan-6-yl)-3-(5-(trifluoromethyl)pyridin-3-yl)urea]
< 5	5 to 25	CN(C(=O)Nc1cccc(C(F)(F)F)c1)C1CC2(C1)CN(C(=O)c1ncnc3[nH]ccc13)C2 [Example 247, 1-(2-(7H-pyrrolo[2,3-d]pyrimidine-4-carbonyl)-2-azaspiro[3.3]heptan-6-yl)-1-methyl-3-(3-(trifluoromethyl)phenyl)urea]
< 5	5 to 25	CN(C(=O)Nc1cccc(C(F)(F)F)c1)C1CC2(C1)CN(C(=O)c1ccnc3[nH]ccc13)C2 [Example 248, 1-(2-(1H-pyrrolo[2,3-b]pyridine-4-carbonyl)-2-azaspiro[3.3]heptan-6-yl)-1-methyl-3-(3-(trifluoromethyl)phenyl)urea]
< 5	5 to 25	CN(C(=O)Nc1cncc(C(F)(F)F)c1)C1CC2(C1)CN(C(=O)c1cnn3cc(-c4ccncc4)ccc13)C2 [Example 249, 1-methyl-1-(2-(6-(pyridin-4-yl)pyrazolo[1,5-a]pyridine-3-carbonyl)-2-azaspiro[3.3]heptan-6-yl)-3-(5-(trifluoromethyl)pyridin-3-yl)urea]
< 5	25 to 100	COc1ccc2c(C(=O)N3CC4(CC(N(C)C(=O)Nc5cncc(C(F)(F)F)c5)C4)C3)cnn2c1 [Example 250, 1-(2-(6-methoxypyrazolo[1,5-a]pyridine-3-carbonyl)-2-azaspiro[3.3]heptan-6-yl)-1-methyl-3-(5-(trifluoromethyl)pyridin-3-yl)urea]
< 5	5 to 25	COc1ccn2ncc(C(=O)N3CC4(CC(N(C)C(=O)Nc5cncc(C(F)(F)F)c5)C4)C3)c2c1 [Example 251, 1-(2-(5-methoxypyrazolo[1,5-a]pyridine-3-carbonyl)-2-azaspiro[3.3]heptan-6-yl)-1-methyl-3-(5-(trifluoromethyl)pyridin-3-yl)urea]
< 5	5 to 25	CN(C(=O)Nc1cncc(C(F)(F)F)c1)C1CC2(C1)CN(C(=O)c1cnn3ccc(N4CCC(F)(F)C4)cc13)C2 [Example 252, 1-(2-(5-(3,3-difluoropyrrolidin-1-yl)pyrazolo[1,5-a]pyridine-3-carbonyl)-2-azaspiro[3.3]heptan-6-yl)-1-methyl-3-(5-(trifluoromethyl)pyridin-3-yl)urea]
< 5	5 to 25	COc1ccc(-c2ccc3c(C(=O)N4CC5(CC(N(C)C(=O)Nc6cncc(C(F)(F)F)c6)C5)C4)cnn3c2)cn1 [Example 253, 1-(2-(6-(6-methoxypyridin-3-yl)pyrazolo[1,5-a]pyridine-3-carbonyl)-2-azaspiro[3.3]heptan-6-yl)-1-methyl-3-(5-(trifluoromethyl)pyridin-3-yl)urea]
< 5	5 to 25	CN(C(=O)Nc1cc(I)ccn1)C1CC2(C1)CN(C(=O)c1cnn3ccn(C)c13)C2 [Example 254, 3-(4-iodopyridin-2-yl)-1-methyl-1-(2-(1-methyl-1H-imidazo[1,2-b]pyrazole-7-carbonyl)-2-azaspiro[3.3]heptan-6-yl)urea]
